# Measured values reported in PMC2783590 (Nature chemical biology, 2009).
# Key:
# Akt = settings: cited from earlier work
# [1] = system: Akt (Thr308) and rpS6 (Ser240/244) phosphorylation in L6 cells; assay: Insulin stimulated L6 cells, immunoblotting; format: cell-based; settings: serum-starved, 20 min drug then 100 nM insulin 10 min
# [2] = system: Akt (Thr308, Ser473) and GSK3β (Ser9) phosphorylation; format: cell-based, Human; settings: serum-starved HEK293, 20 min drug then 50 ng/ml IGF-1 10 min
# [3] = system: Akt membrane localization; assay: Immunofluorescence of Akt in untransfected HEK293 cells; format: cell-based, Human
# PC-3 tumor = settings: PC-3 xenograft; cited from earlier work
# MiaPaCa-2 tumor = settings: MiaPaCa-2 xenograft; cited from earlier work
# 3T3-Akt1 tumor = settings: 3T3-Akt1 xenograft; cited from earlier work
# myr-HA-wtAkt1 = myr-HA-wtAkt1 (Homo sapiens, UniProt P31749); assay: In vitro IP kinase assay for Akt variants; format: biochemical; settings: myr-HA-wtAkt1 expressed in HEK293T cells, immunoprecipitated; 50 µM ATP
# myr-HA-asAkt1 = myr-HA-asAkt1 (Homo sapiens, UniProt P31749, M227G); assay: In vitro IP kinase assay for Akt variants; format: biochemical; settings: myr-HA-asAkt1 expressed in HEK293T cells, immunoprecipitated; 50 µM ATP
# myr-HA-wtAkt2 = myr-HA-wtAkt2 (Homo sapiens, UniProt P31751); assay: In vitro IP kinase assay for Akt variants; format: biochemical; settings: myr-HA-wtAkt2 expressed in HEK293T cells, immunoprecipitated; 50 µM ATP
# myr-HA-asAkt2 = myr-HA-asAkt2 (Homo sapiens, UniProt P31751, M229G); assay: In vitro IP kinase assay for Akt variants; format: biochemical; settings: myr-HA-asAkt2 expressed in HEK293T cells, immunoprecipitated; 50 µM ATP
# myr-HA-wtAkt3 = myr-HA-wtAkt3 (Homo sapiens, UniProt Q9Y243); assay: In vitro IP kinase assay for Akt variants; format: biochemical; settings: myr-HA-wtAkt3 expressed in HEK293T cells, immunoprecipitated; 50 µM ATP
# myr-HA-asAkt3 = myr-HA-asAkt3 (Homo sapiens, UniProt Q9Y243, M225G); assay: In vitro IP kinase assay for Akt variants; format: biochemical; settings: myr-HA-asAkt3 expressed in HEK293T cells, immunoprecipitated; 50 µM ATP
# [4] = system: HA-asAkt1 (Thr308, Ser473) phosphorylation; assay: HEK293 cells transfected with HA-asAkt1, immunoblotting; format: cell-based, Human; settings: 30 min, serially diluted inhibitor
# [5] = system: GSK3β (Ser9) phosphorylation; assay: HEK293 cells transfected with myr-HA-asAkt1, immunoblotting; format: cell-based, Human; settings: myr-HA-asAkt1, 30 min, various concentrations
# [6] = system: myr-HA-asAkt1-KD or myr-HA-asAkt2-KD (Thr308, Ser473) phosphorylation; assay: HEK293 cells expressing kinase dead; format: cell-based, Human; settings: 30 min, 2.5 µM PrINZ or 10 µM 3-IB-PP1
# [7] = system: HA-asAkt1 and flag-wtAkt1 (Thr308, Ser473) phosphorylation; format: cell-based, Human; settings: 30 min, various concentrations
# [8] = system: HA-asAkt1/2/3 (Thr308, Ser473) phosphorylation; format: cell-based, Human; settings: then 2.5 µM PrINZ 30 min; for hyperphosphorylation induced by PrINZ (Thr308 and Ser473): pre-treatment 10 min; for PrINZ induced Thr308 phosphorylation / PrINZ induced hyperphosphorylation at Ser473: pre-treatment 10 min (10 µM BX-795, 2.5 µM PP242)
# [9] = system: myr-HA-asAkt1 (Thr308, Ser473) phosphorylation; format: cell-based, Human; settings: 2.5 µM PIK90 10 min, then 2.5 µM PrINZ 30 min
# 220 purified kinases = assay: SelectScreen profiling, whole panel; format: biochemical; settings: 1 µM
# myr-HA-asAkt1, sequence (P31749 whole entry M227G): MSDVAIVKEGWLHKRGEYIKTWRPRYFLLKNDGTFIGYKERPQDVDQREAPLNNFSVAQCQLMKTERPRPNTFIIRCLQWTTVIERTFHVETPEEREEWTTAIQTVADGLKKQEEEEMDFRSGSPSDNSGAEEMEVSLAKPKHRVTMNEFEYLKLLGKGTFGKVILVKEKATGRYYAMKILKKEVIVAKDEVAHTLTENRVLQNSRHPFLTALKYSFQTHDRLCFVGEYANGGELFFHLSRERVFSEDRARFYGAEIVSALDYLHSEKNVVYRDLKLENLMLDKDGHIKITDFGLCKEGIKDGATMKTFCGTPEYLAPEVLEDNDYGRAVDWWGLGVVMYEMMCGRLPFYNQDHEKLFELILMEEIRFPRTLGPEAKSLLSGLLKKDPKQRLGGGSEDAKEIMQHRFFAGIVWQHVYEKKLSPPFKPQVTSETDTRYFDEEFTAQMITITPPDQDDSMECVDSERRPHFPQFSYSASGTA
# myr-HA-asAkt2, sequence (P31751 whole entry M229G): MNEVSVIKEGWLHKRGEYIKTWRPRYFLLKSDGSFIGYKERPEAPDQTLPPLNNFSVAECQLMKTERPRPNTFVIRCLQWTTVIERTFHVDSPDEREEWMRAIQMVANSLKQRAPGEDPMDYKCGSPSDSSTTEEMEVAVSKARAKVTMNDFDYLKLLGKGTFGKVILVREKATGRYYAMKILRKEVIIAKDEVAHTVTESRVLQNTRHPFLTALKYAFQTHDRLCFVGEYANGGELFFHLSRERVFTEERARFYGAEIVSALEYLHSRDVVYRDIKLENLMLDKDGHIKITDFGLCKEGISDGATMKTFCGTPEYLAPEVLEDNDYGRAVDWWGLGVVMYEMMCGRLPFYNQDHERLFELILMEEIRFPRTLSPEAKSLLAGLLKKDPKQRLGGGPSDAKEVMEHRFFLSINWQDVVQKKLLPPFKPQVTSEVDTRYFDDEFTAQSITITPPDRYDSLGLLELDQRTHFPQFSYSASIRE
# myr-HA-wtAkt2, sequence (P31751 whole entry): as the sequence (P31751 whole entry M229G) above, with G229M counted along it
# myr-HA-wtAkt3, sequence (Q9Y243 whole entry): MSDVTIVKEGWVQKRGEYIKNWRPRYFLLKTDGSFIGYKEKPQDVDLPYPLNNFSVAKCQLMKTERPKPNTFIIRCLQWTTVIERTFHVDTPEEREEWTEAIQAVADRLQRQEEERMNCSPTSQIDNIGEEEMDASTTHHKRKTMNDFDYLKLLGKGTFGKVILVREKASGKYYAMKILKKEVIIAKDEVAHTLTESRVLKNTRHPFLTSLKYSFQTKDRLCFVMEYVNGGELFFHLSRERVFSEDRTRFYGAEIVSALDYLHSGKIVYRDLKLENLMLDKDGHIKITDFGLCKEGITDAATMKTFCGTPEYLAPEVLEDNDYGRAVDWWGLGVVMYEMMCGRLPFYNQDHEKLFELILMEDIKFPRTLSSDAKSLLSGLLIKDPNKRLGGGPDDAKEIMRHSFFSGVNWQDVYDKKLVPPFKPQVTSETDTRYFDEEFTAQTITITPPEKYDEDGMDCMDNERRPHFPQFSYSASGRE
# myr-HA-asAkt3, sequence (Q9Y243 whole entry M225G): as the sequence (Q9Y243 whole entry) above, with M225G counted along it
# myr-HA-wtAkt1, sequence (P31749 whole entry): as the sequence (P31749 whole entry M227G) above, with G227M counted along it
compound,measurement,setting,value
"CCn1c(-c2nonc2N)nc2c(C#CC(C)(C)O)ncc(OC[C@H]3CCCNC3)c21 [GSK690693, 4-(2-(4-amino-1,2,5-oxadiazol-3-yl)-1-ethyl-7-{[(3S)-3-piperidinylmethyl]oxy}-1H-imidazo[4,5-c]pyridin-4-yl)-2-methyl-3-butyn-2-ol]",Akt hyperphosphorylation,Akt,induces Akt hyperphosphorylation
COc1ccccc1N1CCN(c2ncnc3[nH]nc(Br)c23)CC1 [DG2],Akt phosphorylation at Thr308 and Ser473,[1],does not induce
Cc1n[nH]c2ccc(-c3cncc(OC[C@@H](N)Cc4c[nH]c5ccccc45)c3)cc12 [A-443654],Akt phosphorylation at Thr308 and Ser473,[2],induced
same,phosphorylation on GSK3β at Ser9,[2],potently inhibited
same,location of Akt,"[3]; 2.5 µM, 15 min, no growth factor stimulation",translocation of Akt to the plasma membrane
same,tumor growth,PC-3 tumor,inhibit the growth
same,tumor growth,MiaPaCa-2 tumor,inhibit the growth
same,tumor growth,3T3-Akt1 tumor,inhibit the growth
CCCc1cc(-c2cncc(OC[C@@H](N)Cc3c[nH]c4ccccc34)c2)cc2c(C)n[nH]c12 [PrINZ],IC50 (nM) wtAkt1,myr-HA-wtAkt1,did not inhibit
same,IC50 (nM) asAkt1,myr-HA-asAkt1,low nanomolar range
same,IC50 (nM) wtAkt2,myr-HA-wtAkt2,did not inhibit
same,IC50 (nM) asAkt2,myr-HA-asAkt2,low nanomolar range
same,IC50 (nM) wtAkt3,myr-HA-wtAkt3,did not inhibit
same,IC50 (nM) asAkt3,myr-HA-asAkt3,low nanomolar range
same,Akt phosphorylation at Thr308 and Ser473,[2],unperturbed
same,phosphorylation on GSK3β at Ser9,[2],unperturbed
same,HA-asAkt1 hyperphosphorylation,[4],induced
same,phosphorylation level of Ser9 on GSK3β,[5],decreased
same,hyperphosphorylation on Thr308 and Ser473 of kinase dead mutants,[6],induced striking hyperphosphorylation
same,Thr308 and Ser473 phosphorylation after immunoprecipitation,[7],induced only on HA-asAkt1
CC(C)(C)n1nc(Cc2cccc(I)c2)c2c(N)ncnc21 [3-IB-PP1],Akt phosphorylation at Thr308 and Ser473,[2],unperturbed
same,phosphorylation on GSK3β at Ser9,[2],unperturbed
same,HA-asAkt1 hyperphosphorylation,[4],induced
same,phosphorylation level of Ser9 on GSK3β,[5],decreased
same,hyperphosphorylation on Thr308 and Ser473 of kinase dead mutants,[6],induced striking hyperphosphorylation
"O=c1[nH]c2ccccc2n1C1CCN(Cc2ccc(-c3nc4cc5nc[nH]c5cc4nc3-c3ccccc3)cc2)CC1 [Akti-1,2]",hyperphosphorylation induced by PrINZ (Thr308 and Ser473),[8],dose-dependent inhibition
COc1ccc2c(c1OC)N=C(NC(=O)c1cccnc1)N1CCN=C21 [PIK90],hyperphosphorylation induced by PrINZ (Thr308 and Ser473),[8],significantly attenuated
same,hyperphosphorylation on myr-HA-asAkt1,[9],not inhibited
same,A-443654 induced translocation and Thr308 phosphorylation of Akt,[3]; 2.5 µM PIK90 10 min before 2.5 µM A-443654 15 min,inhibited
O=C(NCCCNc1nc(Nc2cccc(NC(=O)N3CCCC3)c2)ncc1I)c1cccs1 [BX-795],selectivity in panel of 220 kinases,220 purified kinases,selective for only PDK1 within the PI3K-mTORC1 pathway
same,PrINZ induced Thr308 phosphorylation,[8],significant decrease
same,PrINZ induced hyperphosphorylation at Ser473,[8],reduced
CC(C)n1nc(-c2cc3cc(O)ccc3[nH]2)c2c(N)ncnc21 [PP242],PrINZ induced Thr308 phosphorylation,[8],unaffected
same,PrINZ induced hyperphosphorylation at Ser473,[8],completely inhibited
